Laboratory results taken from patent publication US20110092469A1, “Quinone derivative 2,3-dimethoxy-5-methyl-6-(10-hydroxydecyl)-1,4-benzoquinone for the treatment of respiratory illness in muscular dystrophy” (SANTHERA PHARMACEUTICALS (SCHWEIZ) AG, priority 2008, published 2011).

Tested on: Duchenne Muscular Dystrophy (DMD) patients
Experiment: Double-blind, placebo-controlled, randomised clinical trial: pulmonary function testing in DMD patients
Format: in vivo, human
Description: Efficacy of idebenone on respiratory parameters in Duchenne Muscular Dystrophy (DMD) patients was assessed in a double-blind, placebo-controlled, randomised parallel group, clinical trial conducted in one singe clinical center. DMD patients at age 8 to 16 years were treated with idebenone or placebo over a period of 52 weeks. After written informed consent was obtained from the patient and the patient's parent/legal guardian, patients who met the protocol eligibility criteria were enrolled at the study centre and randomised to daily treatment of idebenone (150 mg, 3× daily; total daily dose of 450 mg) or placebo (3× daily). Efficacy was assessed at baseline and at weeks 26 and 52.
A total of 21 patients were enrolled, 13 patients were randomised to treatment with idebenone and 8 randomised to treatment with placebo.
Idebenone was formulated as a round biconvex shaped, film-coated orange tablet, with a 10 mm diameter, containing 150 mg of idebenone and Lactose Monohydrate, Microcrystalline Cellulose, Croscarmellose Sodium, Povidone (Plasdone® K25), Magnesium Stearate and Silicon Dioxide as excipients. The tablet is manufactured by a wet granulation process performed with a high-shear granulator, followed by compression on a rotary tabletting machine and film-coating of the cores in a perforated pan coater. The composition of the placebo is based on the composition of the 150 mg film-coated tablet. The drug substance and the excipients have been replaced by a mixture of lactose monohydrate and microcrystalline cellulose. The composition of the coating remained constant. Placebo tablets are manufactured by direct compression, followed by film-coating.
Both idebenone (150 mg) and matching placebo were administered as an oral tablet. Patients were to take 1 tablet, 3 times a day with meals, for 12 months (52 weeks).
Pulmonary function testing was performed by one clinical evaluator (physical therapist) with longstanding expertise in the assessment of children with neuromuscular diseases, using state of the art equipment and methods. Testing was done with the patient sitting, with a standardized order of testing. Lung volumes (FVC, FEV1) were measured using a handheld Koko spirometer (PDS Instrumentation, Louisville, USA).
Maximum inspiratory (MIP) and expiratory (MEP) pressures were measured using a Magnehelic® manometer (Dwyer Instrument, Michigan City Ind., USA) connected to a mouthpiece. Peak expiratory flow (PEF) measurements were performed using a portable peak flow meter (Mini-Wright peak flow meter, Clement Clarke International). For all parameters the highest values from three consecutive recordings were used in compliance with criteria published by the American Thoracic Society (ATS) (American Thoracic Society. Am J Respir Crit Care Med 1994; 152:1107-1136).
Pulmonary function testing included the following parameters: • Forced vital capacity (FVC) [L] • Forced vital capacity % predicted • Forced expiratory volume in 1 second (FEV1) [L] • FEV1 (% predicted) • Peak expiratory flow (PEF) [L/min] • Peak expiratory flow (% predicted) • Maximal Inspiratory Pressure (MIP) [cmH2O] • Maximal Inspiratory Pressure (% predicted)
For peak expiratory flow conversion from measured values (in Liter) to ‘% predicted’ was performed by the following equation: […]
“peak expiratory flow−422.8+5.288×height”[height in cm]
For maximal inspiratory pressure (MIP) conversion from measured values (in cm H2O) to ‘% predicted’ was performed by the following equation: […]
“MIP−27.020−(4.132×age)−(0.003×height×weight)”[age: years; height: cm body height; weight: kg]
Efficacy of idebenone was determined for the parameters listed above as changes between baseline and end of treatment (at week 52) and comparisons were made between idebenone treated and placebo treated subjects.

[1] = DMD patients, idebenone 450 mg/day oral, N = 13, week 52, mean ± SD

## COC1=C(OC)C(=O)C(CCCCCCCCCCO)=C(C)C1=O [Idebenone, 2,3-dimethoxy-5-methyl-6-(10-hydroxydecyl)-1,4-benzoquinone]
DMD patients 8-16 years, idebenone 150 mg 3x daily oral, N = 13, week 52 (end of treatment), mean ± SD
  FVC (forced vital capacity), Week 52: 2.33 ± 0.67 L
DMD patients on idebenone, 52 week treatment period
  MIP expressed as percent of the predicted value, increase over 52 weeks: 4.8±13.0%
DMD patients on idebenone, difference in change vs placebo statistically significant
  Peak expiratory flow at week 52 compared to baseline (in words): higher at week 52 compared to baseline
DMD patients on idebenone, expressed as more negative number, change clearly different from placebo
  Maximum inspiratory pressure (MIP) over the 52 week treatment period (in words): increased
DMD patients, idebenone 450 mg/day oral, N = 13, change baseline to week 52, mean ± SD, more negative = larger inspiratory force, p 0.173 vs placebo (one-sided)
  MIP, Change Week 52-BL: −7.33 ± 13.0 cmH2O
DMD patients, idebenone 450 mg/day oral, N = 13, change baseline to week 52, mean ± SD, p 0.039 vs placebo (one-sided)
  Peak expiratory flow, Change Week 52-BL: 30.8 ± 54.4 L/min
DMD patients, idebenone 450 mg/day oral, N = 13, change baseline to week 52, mean ± SD, p 0.042 vs placebo (one-sided)
  Peak expiratory flow % predicted, Change Week 52-BL: 2.8 ± 13.8 % predicted
DMD patients, idebenone 450 mg/day oral, N = 13, change baseline to week 52, mean ± SD, p 0.142 vs placebo (one-sided)
  MIP % predicted, Change Week 52-BL: 4.8 ± 13.0 % predicted
DMD patients, idebenone 450 mg/day oral, N = 13, change baseline to week 52, mean ± SD, p 0.471 vs placebo (one-sided)
  FVC, Change Week 52-BL: 0.14 ± 0.31 L
DMD patients, idebenone 450 mg/day oral, N = 13, change baseline to week 52, mean ± SD, p 0.484 vs placebo (one-sided)
  FEV1, Change Week 52-BL: 0.11 ± 0.37 L
DMD patients, idebenone 450 mg/day oral, N = 13, change baseline to week 52, mean ± SD, p 0.651 vs placebo (one-sided)
  FEV1 % predicted, Change Week 52-BL: −2.0 ± 9.2 % predicted
DMD patients, idebenone 450 mg/day oral, N = 13, change baseline to week 52, mean ± SD, p 0.793 vs placebo (one-sided)
  FVC % predicted, Change Week 52-BL: −1.2 ± 6.4 % predicted
[1]
  FEV1 % predicted, Week 52: 74.5 ± 23.88 % predicted
  FEV1 (forced expiratory volume 1 second), Week 52: 2.08 ± 0.71 L
  FVC % predicted, Week 52: 75.3 ± 24.79 % predicted
  MIP % predicted, Week 52: 44.1 ± 13.38 % predicted
  MIP (maximal inspiratory pressure), Week 52: −47.3 ± 14.09 cmH2O
  Peak expiratory flow % predicted, Week 52: 76.9 ± 20.13 % predicted
  Peak expiratory flow, Week 52: 292.3 ± 90.6 L/min
DMD patients, idebenone treatment 52 weeks
  Changes in FVC, FVC % predicted, FEV1 and FEV1 % predicted versus placebo (in words): not different from placebo treatment
